Data on 83 compounds can be found in PubChem BioAssay AID700 (NMMLSC, 2007).

SMILES strings stand for the structures. The source made the active and inactive calls. How the calls were made is not given here. Some results are limits rather than exact numbers.

Broadly, the IC50 is the point on the concentration scale where inhibition reaches its midpoint.

For this experiment, the system named is bacterial quorum sensing reporter inhibition. The experiment can be described thus: blockers of quorum-sensing reporter signal in bacteria – dose response (AID 700).
For `c1ccc(-c2ccc(C(c3ccccc3)n3ccnc3)cc2)cc1` (stereo not drawn), the IC50 is > 20 µM (inactive).
With `COc1ccc(N(CC(=O)Nc2nc3ccc(C)cc3s2)S(=O)(=O)c2c(C)nn(C)c2C)cc1` the figure was > 20 µM (inactive).
As for `CC(C)Cc1cc(C(=O)Nc2sc3c(c2C#N)CCCC3)no1`, the figure is > 20 µM (inactive); as for `c1csc(CCNc2ncnc3sc4c(c23)CCC4)c1`, > 20 µM (inactive); as for `CCc1ccc2[nH]c(=O)c(CN(CCCN3CCOCC3)C(=O)Nc3ccc(F)cc3)cc2c1`, > 20 µM (inactive).
As for `CCn1c2ccccc2c2cc(NC(=O)CSc3nnc(C4CC4)n3Cc3ccco3)ccc21`, the figure is > 20 µM (inactive); as for `O=C(NCC(c1cccnc1)N1CCN(c2ccccc2F)CC1)c1cccc(Cl)c1` (stereo not drawn), 1.97 µM; as for `CCc1ccc2[nH]c(=O)c(CN(CCCN3CCOCC3)C(=O)Nc3cccc(Cl)c3)cc2c1`, > 20 µM (inactive).
As to `CCCCc1oc2ccccc2c1C(=O)c1cc(I)c(OCCN(CC)CC)c(I)c1`, the IC50 is > 20 µM (inactive).
`Cc1cc(NC(=O)C2CCCC2)nc2c1c(=O)oc1ccccc12`: the IC50 is 18.4 µM (inactive).
As for `Cc1cccc2sc(NC(=O)CN(C)S(=O)(=O)c3ccc(Br)s3)nc12`, the figure is > 20 µM (inactive); as for `CC(C)N=c1cc2n(-c3ccc(Cl)cc3)c3ccccc3nc-2cc1Nc1ccc(Cl)cc1`, > 20 µM (inactive).
With `O=C(c1ccc(Br)o1)N1CCN(c2ccc3nnc(-c4ccccc4)n3n2)CC1` the figure was > 20 µM (inactive).
As for `COC(=O)c1[nH]nc2c1C(=O)N(C1CCCCC1)C2=O`, the figure is 12.7 µM (inactive).
For the compound `CCCCOC(=O)Cn1c(=O)oc2ccc(C)cc21`, the IC50 is > 20 µM (inactive).
As for `Fc1ccc(-c2nnc3ccc(N4CCc5ccccc5C4)nn23)cc1`, the figure is > 20 µM (inactive).
As for `CCCCC(=O)Nc1cc(C)c2c(=O)oc3ccccc3c2n1`, the figure is > 20 µM (inactive); as for `CCCn1c(=S)[nH]c2cc(C(=O)N3CCN(c4ccccc4OC)CC3)ccc2c1=O`, > 20 µM (inactive).
With `Cc1ccc2cc(CN(CCN3CCCC3)C(=O)Nc3ccccc3)c(=O)[nH]c2c1C` the figure was > 20 µM (inactive); with `O=C1CS/C(=N\C(=O)N2c3ccccc3Sc3ccccc32)N1`, 1.42 µM; with `CC1CCCN(C(C(=O)Nc2ccc3c(c2)OCO3)c2ccccc2)C1` (stereo not drawn), 1.25 µM.
For `O=C(CN1C(=O)CC(c2ccco2)Sc2ccccc21)NCc1ccc2c(c1)OCO2` (stereo not drawn), the IC50 was 16.5 µM (inactive).
As for `Cc1ccc2[nH]c(=O)c(CN(CCCN(C)C)C(=O)Nc3cccc(Cl)c3)cc2c1`, the figure is > 20 µM (inactive); as for `Nc1c(C(O)(C(F)(F)F)C(F)(F)F)ccc2ccccc12`, > 20 µM (inactive); as for `CCN1CCCC1CN(Cc1cc2c(C)cc(C)cc2[nH]c1=O)C(=O)NC1CCCCC1` (stereo not drawn), > 20 µM (inactive).
With `CCc1ccc(S(=O)(=O)c2n[nH]n3c2nc(=O)c2ccccc23)cc1` the figure was 1.46 µM; with `Cc1c(Cl)cccc1Nc1ccccc1C(=O)O`, 1.89 µM; with `Cn1cccc1Cc1nnc(SCC(=O)Nc2ccccc2)n1-c1ccc(F)cc1`, > 20 µM (inactive).
With `Cc1ccsc1-c1nc(CSCC(=O)N2CCN(c3ccccc3)CC2)c(C)o1` the figure was 12.4 µM (inactive); with `CCc1ccc(N/C(SCc2cccc(F)c2)=C(/C#N)C(=O)NCc2ccco2)cc1`, > 20 µM (inactive).
On to `O=C(O)CCc1cc(I)c(Oc2ccc(O)c(I)c2)c(I)c1`, for which the IC50 is 1.78 µM.
Regarding `Cc1nc2ccccn2c1/C(O)=C1\C(=O)C(=O)N(CCCN(C)C)C1c1ccc(F)cc1` (stereo not drawn), the IC50 is > 20 µM (inactive).
As for `COC(=O)C1C(=O)C2=C(CC1C)NC(C)=C(C(=O)OC1CCCCC1)C2c1ccc(N(C)C)cc1` (stereo not drawn), the figure is 9.7 µM; as for `Cc1ccc(Cl)c(Nc2ccccc2C(=O)O)c1Cl`, 3.13 µM.
As for `Cc1ccc(C)c(N2CCN(C(=O)CCCCn3c(=O)[nH]c4ccccc4c3=O)CC2)c1`, the figure is > 20 µM (inactive).
Take `CC[C@H]1OC(=O)C[C@@H](O)[C@H](C)[C@@H](O[C@@H]2O[C@H](C)C[C@H](N(C)C)[C@H]2O)[C@@H](CC=O)C[C@@H](C)C(=O)C=C[C@]2(C)O[C@H]2[C@@H]1C`: the IC50 was 1.14 µM.
For `CC(C)CC(NC(=O)c1ccco1)C(=O)Nc1ccc2c(c1)OCCO2` (stereo not drawn), the IC50 was > 20 µM (inactive).
With `Cc1cccc(Nc2ccccc2C(=O)O)c1C` the figure was 1.02 µM; with `CCc1ccc2[nH]c(=O)c(CN(CCCN3CCOCC3)C(=O)Nc3ccc(Cl)cc3)cc2c1`, > 20 µM (inactive); with `CCOc1ccc(NC(=O)C2CCCN(S(=O)(=O)c3c(C)nn(C)c3C)C2)cc1` (stereo not drawn), > 20 µM (inactive).
With `O=C(Nc1nc2c(s1)CCc1ccccc1-2)c1cccs1` the figure was > 20 µM (inactive).
As for `CCc1oc2ccccc2c1C(=O)c1ccc(O)cc1`, the figure is 3.28 µM; as for `Cc1ccc(C)c2[nH]c(=O)c(CN(CCN3CCCC3)C(=O)Nc3cccc(Cl)c3)cc12`, 8.19 µM; as for `CC1CN(c2nc3ccccc3nc2C(C#N)C(=O)OC2CCCCC2)CC(C)O1` (stereo not drawn), > 20 µM (inactive).
As to `O=C(O)c1ccccc1Nc1cccc(C(F)(F)F)c1`, the IC50 is > 20 µM (inactive).
With `O=C(CSc1n[nH]c(-c2ccco2)n1)Nc1sc2c(c1C(=O)Nc1ccccc1)CCCC2` the figure was 3.32 µM.
With `Cc1cc(NC(=O)CC(C)(C)C)nc2c1c(=O)oc1ccccc12` the figure was > 20 µM (inactive); with `COCCn1nnnc1C(c1cc2cc(OC)ccc2[nH]c1=O)N1CCC(Cc2ccccc2)CC1` (stereo not drawn), > 20 µM (inactive); with `CC(C)CCOP(=O)(c1ccc(N(C)C)cc1)C(O)c1ccccc1F` (stereo not drawn), > 20 µM (inactive).
As for `Cc1nn(C(C)(C)C)c(OC(=O)C2CCCC2)c1S(=O)(=O)c1ccccc1`, the figure is > 20 µM (inactive).
As to `Cc1ccc(-c2nc(CS(=O)CC(=O)NCCC(C)C)c(C)o2)cc1` (stereo not drawn), the IC50 was > 20 µM (inactive).
Turning to `Cc1ccc(N2CC(C(=O)NC3=NCCS3)CC2=O)cc1` (stereo not drawn), the IC50 was > 20 µM (inactive).
With `Cn1cc(/C=N/n2cnc3sc4c(c3c2=O)CCCC4)c2ccccc21` the figure was > 20 µM (inactive).
On to `CCc1c(C)nc(SCC(=O)Nc2ccc(Br)cc2)[nH]c1=O`, for which the IC50 was > 20 µM (inactive).
Turning to `O=C(CCCCn1c(=O)[nH]c2ccccc2c1=O)N1CCN(c2cccc(C(F)(F)F)c2)CC1`, the IC50 is > 20 µM (inactive).
With `CCc1c(C)sc(NC(=O)c2cc(C)on2)c1C#N` the figure was > 20 µM (inactive); with `COc1ccc(-c2nc(C(N)=O)c3[nH]c(=O)n(-c4cccc(Cl)c4)c3n2)cc1OC`, > 20 µM (inactive).
As to `CCOC(=O)Cn1c(=O)oc2cc(S(=O)(=O)Nc3ccc(N(CC)CC)cc3C)ccc21`, the IC50 was > 20 µM (inactive).
With `CC1CCCCN1S(=O)(=O)c1ccc(C(=O)Nc2nnc(-c3cccs3)o2)cc1` (stereo not drawn) the figure was > 20 µM (inactive); with `CC1CCN(S(=O)(=O)c2ccc3c(c2)oc(=O)n3CC(=O)NCc2ccc3c(c2)OCO3)CC1`, > 20 µM (inactive); with `COc1ccc(OC)c2[nH]c(=O)c(CCNC(=O)C(C)C)cc12`, > 20 µM (inactive).
As for `COc1ccc(NC(=O)c2c(SC)nsc2SC)cc1`, the figure is > 20 µM (inactive).
With `CC(C)[C@@]1(NC(=O)[C@@H]2C[C@@H]3c4cccc5[nH]cc(c45)C[C@H]3N(C)C2)O[C@@]2(O)[C@@H]3CCCN3C(=O)[C@H](Cc3ccccc3)N2C1=O` the figure was > 20 µM (inactive).
`CC1CCCN(C(C(=O)Nc2ccc3c(c2)OCCO3)c2ccccc2)C1` (stereo not drawn): the IC50 is > 20 µM (inactive).
As for `CCC(=O)O[C@@H]1CC(=O)O[C@H](C)CC=CC=C[C@@H](O)[C@H](C)C[C@H](CC=O)[C@H](O[C@H]2O[C@H](C)[C@@H](O[C@H]3C[C@@](C)(O)[C@@H](OC(=O)CC)[C@H](C)O3)[C@H](N(C)C)[C@H]2O)[C@H]1OC`, the figure is 0.55 µM; as for `COc1cccc(-c2cc(C(F)(F)F)nc(NCc3ccco3)n2)c1`, > 20 µM (inactive); as for `CCOC(=O)N1CCC(NC(=O)Cn2nc(Cc3ccncc3)c3ccccc3c2=O)CC1`, 5.8 µM.
Turning to `COc1ccc(Nc2nc(-c3sc(N)nc3C)cs2)cc1`, the IC50 is > 20 µM (inactive).
As for `COC(=O)c1ccc(CSc2nc3c(cnn3-c3ccc(Cl)cc3)c(=O)[nH]2)o1`, the figure is > 20 µM (inactive); as for `Cn1c(=O)oc2cc(S(=O)(=O)NCCN3CCN(c4ccccc4F)CC3)ccc21`, > 20 µM (inactive); as for `COc1cc2[nH]c(=O)n(CCC(=O)N3CCN(c4cc(Cl)ccc4C)CC3)c(=O)c2cc1OC`, > 20 µM (inactive).
With `COc1cccc(Oc2cnc(N)nc2-c2ccc(OC)cc2O)c1` the figure was > 20 µM (inactive); with `Cc1ccc(C)c2[nH]c(=O)c(CN(CCN3CCCC3)C(=O)Nc3ccc(F)cc3)cc12`, > 20 µM (inactive).
As for `O=C(NCCCc1ccccc1)c1cnc2n(c1=O)CCS2`, the figure is > 20 µM (inactive); as for `O=C(OCC(O)CO)c1ccccc1Nc1ccnc2cc(Cl)ccc12` (stereo not drawn), > 20 µM (inactive); as for `Cn1c(=O)n(CCc2ccccc2)c(=O)c2c1nc1n2CCN1Cc1ccco1`, > 20 µM (inactive).
As to `CCOC(=O)C(C)(C)Sc1nc2c(cnn2-c2ccc(C)cc2)c(=O)[nH]1`, the IC50 was > 20 µM (inactive).
As for `N#Cc1c(NC(NC(=O)c2ccco2)C(=O)c2ccccc2)sc2c1CCCC2` (stereo not drawn), the figure is > 20 µM (inactive).
As for `N#Cc1c(NC(=O)COC(=O)C2CC3C=CC2C3)oc(-c2ccccc2)c1-c1ccccc1` (stereo not drawn), the figure is 0.68 µM.
For the compound `O=C(CN1C(=O)CC(c2ccco2)Sc2ccccc21)Nc1ccc2c(c1)OCCO2` (stereo not drawn), the IC50 was > 20 µM (inactive).
As for `COc1ccc(O)c(C(=O)CC(=O)c2ccc(F)cc2)c1`, the figure is > 20 µM (inactive).
As for `O=C(NC(=O)c1cccc(F)c1)OC[C@@H]1CCCN2CCCC[C@H]12`, the figure is > 20 µM (inactive).
`COc1ccc(-c2cnc(SCC(=O)Nc3ccc4c(c3)OCO4)n2Cc2ccco2)cc1`: the IC50 was 16.3 µM (inactive).
